Test results as given in patent publication US20060063759A1, “Tricyclic steroid hormone nuclear receptor modulators” (priority 2002, published 2006).

What was measured:
glucocorticoid receptor = target: T1, glucocorticoid receptor (Homo sapiens, UniProt P04150); assay: Glucocorticoid Receptor Binding Assay ([3H]-dexamethasone, A549 cell extract); conditions: [3H]-dexamethasone binding, read-out: GR Ki
T1 construct: containing 50-200 ug of A549 cell extract and 1.86 nM [^3H]-dexamethasone; host or cells: A549 human lung epithelial cells (sonicated cell extract)
T1 sequence (P04150 1-777): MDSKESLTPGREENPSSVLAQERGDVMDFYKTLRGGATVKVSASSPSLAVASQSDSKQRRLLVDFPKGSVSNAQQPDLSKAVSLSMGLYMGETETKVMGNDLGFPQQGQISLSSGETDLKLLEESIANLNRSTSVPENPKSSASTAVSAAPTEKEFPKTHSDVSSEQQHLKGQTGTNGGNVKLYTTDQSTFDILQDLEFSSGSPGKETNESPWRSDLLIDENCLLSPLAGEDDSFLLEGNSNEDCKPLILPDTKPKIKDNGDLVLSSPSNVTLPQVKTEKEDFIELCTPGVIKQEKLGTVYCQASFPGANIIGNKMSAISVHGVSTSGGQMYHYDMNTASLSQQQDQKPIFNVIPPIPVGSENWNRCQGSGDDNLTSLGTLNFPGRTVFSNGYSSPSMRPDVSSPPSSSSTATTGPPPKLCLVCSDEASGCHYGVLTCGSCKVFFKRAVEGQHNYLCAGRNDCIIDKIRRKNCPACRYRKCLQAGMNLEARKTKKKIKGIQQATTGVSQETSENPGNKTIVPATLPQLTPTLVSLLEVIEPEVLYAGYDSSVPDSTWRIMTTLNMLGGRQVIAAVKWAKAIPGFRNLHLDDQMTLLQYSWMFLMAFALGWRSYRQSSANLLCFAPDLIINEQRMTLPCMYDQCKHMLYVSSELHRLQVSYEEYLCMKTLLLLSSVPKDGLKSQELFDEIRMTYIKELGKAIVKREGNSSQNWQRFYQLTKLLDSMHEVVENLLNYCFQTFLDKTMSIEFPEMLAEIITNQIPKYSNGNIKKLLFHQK
In short: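 A549 cell extract (50–200 ug) incubated with 1.86 nM [3H]-dexamethasone and test compound for 16 h at 4 °C in Tris-HCl pH 7.2 buffer with glycerol and molybdate. Unbound radioligand removed by dextran-coated charcoal, then supernatant bound counts measured by scintillation.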

human MR = target: T2, human MR (Homo sapiens, UniProt P08235); assay: Mineralocorticoid Receptor Binding Assay ([3H]-aldosterone); conditions: [3H]-aldosterone binding, human MR expressed in Sf9 cells; read-out: MR Ki
T2 construct: The full length human MR gene is cloned from a human kidney or human brain cDNA library; His tag from the pAcHLT vector (own knowledge); made in house; host or cells: Sf9 insect cells (baculovirus, pAcHLT transfer vector)
T2 sequence (P08235 1-984): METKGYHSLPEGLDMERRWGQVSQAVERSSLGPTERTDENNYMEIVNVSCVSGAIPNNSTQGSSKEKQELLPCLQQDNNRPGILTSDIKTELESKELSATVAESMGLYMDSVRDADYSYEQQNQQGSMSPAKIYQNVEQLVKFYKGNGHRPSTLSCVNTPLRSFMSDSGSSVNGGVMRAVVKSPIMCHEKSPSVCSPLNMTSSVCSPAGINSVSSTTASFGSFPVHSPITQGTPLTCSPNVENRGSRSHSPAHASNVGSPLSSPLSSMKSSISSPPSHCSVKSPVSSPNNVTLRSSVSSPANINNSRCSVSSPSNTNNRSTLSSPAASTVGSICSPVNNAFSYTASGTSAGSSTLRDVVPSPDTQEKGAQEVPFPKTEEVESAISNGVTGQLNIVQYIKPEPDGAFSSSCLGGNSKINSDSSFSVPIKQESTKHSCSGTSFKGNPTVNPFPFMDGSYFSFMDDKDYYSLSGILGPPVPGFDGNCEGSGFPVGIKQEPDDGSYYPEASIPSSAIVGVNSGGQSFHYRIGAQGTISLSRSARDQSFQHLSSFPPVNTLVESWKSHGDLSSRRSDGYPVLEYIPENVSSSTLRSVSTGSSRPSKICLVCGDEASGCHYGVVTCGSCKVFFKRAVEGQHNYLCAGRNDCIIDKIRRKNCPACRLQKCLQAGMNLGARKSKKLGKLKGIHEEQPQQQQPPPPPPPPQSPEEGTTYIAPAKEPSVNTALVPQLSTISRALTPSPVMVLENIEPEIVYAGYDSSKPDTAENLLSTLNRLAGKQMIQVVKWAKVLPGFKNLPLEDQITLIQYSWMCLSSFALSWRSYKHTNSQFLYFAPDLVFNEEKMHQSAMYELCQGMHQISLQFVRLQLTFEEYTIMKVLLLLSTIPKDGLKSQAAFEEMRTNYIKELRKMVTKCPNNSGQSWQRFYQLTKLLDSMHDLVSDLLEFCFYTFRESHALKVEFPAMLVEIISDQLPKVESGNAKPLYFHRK
In short: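 Lysate supernatant of Sf9 cells expressing full-length human MR (20-25 μg protein) was incubated with 0.5 nM [3H]-aldosterone and test compound in molybdate/Tris/phosphate/glycerol buffer, pH 7.5, ~16 h at 4 °C. Bound ligand was filtered and counted by scintillation; IC50 is the concentration halving [3H]-aldosterone binding.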

Structure (SMILES)	Ki (glucocorticoid receptor) [µM]	Ki (human MR) [µM]
COc1ccc2c(c1)OCc1ccccc1C2=Cc1ccc2[nH]c(=O)[nH]c2c1 [Example 639]	< 10	< 0.5
O=c1[nH]c2ccc(C=C3c4cccc(F)c4CCc4c(F)cccc43)cc2[nH]1 [Example 470]	< 10	< 0.5
Fc1ccc2c(c1)OCc1ccccc1C2=Cc1cccc(C(F)F)c1 [Example 640]	< 0.5	< 0.5
Cc1cccc2c1OCc1ccccc1/C2=C\c1cccc(NS(C)(=O)=O)c1 [Example 674]	< 0.5	< 0.5
Oc1ccc(C=C2c3ccccc3CCc3cc(O)ccc32)cc1 (mixture of isomers) [Example 169, 5-(4-Hydroxy-benzylidene)-10,11-dihydro-5H-dibenzo[a,d]cyclohepten-2-ol]	< 0.5	< 0.5
CCOC(=O)C(=C1c2ccccc2CCc2ccccc21)c1cccc(NS(C)(=O)=O)c1 [Example 753, (10,11-Dihydro-dibenzo[a,d]cyclohepten-5-ylidene)-(3-methanesulfonylamino-phenyl)-acetic acid ethy lester]	< 0.5	< 0.5
Oc1cc(C=C2c3ccccc3CCc3c(Cl)cccc32)ccc1Cl [173(a), 2-Chloro-5-(1-chloro-10,11-dihydro-dibenzo[a,d]cyclohepten-5-ylidenemethyl)-phenol]	< 0.5	< 0.5
Cn1c(=O)[nH]c2cc(/C=C3/c4ccccc4COc4cc(F)ccc43)ccc21 [Example 634]	< 0.5	< 0.5
CCCCS(=O)(=O)Nc1cccc(C=C2c3ccccc3CCc3ccccc32)c1 [Example 105, Butane-1-sulfonic acid [3-(10,11-dihydro-dibenzo[a,d]cyclohepten-5-ylidenemethyl)-phenyl]-amide]	< 0.5	< 0.5
Cc1ccccc1CC1c2ccccc2CCc2ccccc21 [Example 282]	< 0.5	< 0.5
COc1ccc2c(c1)CCc1ccccc1[C@@H]2Cc1cccc(NS(C)(=O)=O)c1 [Example 351]	< 0.5	< 0.5
C/C(=C1\c2ccc(Cl)cc2COc2ccccc21)c1cccc(NS(C)(=O)=O)c1 [Example 798]	< 0.5	< 0.5
C(=C1c2ccccc2CCc2ccccc21)c1ccc2nc[nH]c2c1 [Example 443]	< 10	< 0.5
Nc1n[nH]c2cc(C=C3c4ccccc4CCc4ccccc43)ccc12 [Example 444]	< 0.5	< 0.5
CC(C)Cn1c(=O)[nH]c2cc(/C=C3/c4ccccc4COc4cc(F)ccc43)ccc21 [Example 711]	< 1	< 0.5
CN1C(=O)c2ccccc2C(=Cc2cccc(NS(C)(=O)=O)c2)c2ccccc21 [Example 652]	< 10	< 0.5
CCC(=C1c2ccccc2CCc2ccccc21)c1cccc(NS(C)(=O)=O)c1 [Example 763]	< 0.5	< 0.5
COc1ccc2c(c1)COc1ccccc1[C@H]2Cc1cccc(NS(C)(=O)=O)c1 [Example 734]	< 0.5	< 0.5
O=c1[nH]c2cc(/C=C3\c4ccccc4COc4ccccc43)ccc2o1 [Example 620]	< 0.5	< 0.5
CS(=O)(=O)Nc1cccc(C=C2c3ccccc3C3CC3c3ccccc32)c1 (stereo not drawn) [Example 602]	< 0.5	< 0.5
CC/C(=C1\c2ccc(OC)cc2COc2cc(F)ccc21)c1cccc(NS(C)(=O)=O)c1 [Example 824]	< 0.5	< 0.5
Cc1ccc2c(c1)SCc1ccccc1/C2=C\c1cccc(NS(C)(=O)=O)c1 [Example 749]	< 0.5	< 0.5
Cc1cccc2c1OCc1ccccc1/C2=C/c1cccc(NS(C)(=O)=O)c1 [Example 673]	< 0.5	< 0.5
CN(C)S(=O)(=O)Nc1cccc(C=C2c3ccccc3CCc3ccccc32)c1 [Example 112, Dimethylsulfamic acid [3-(10,11-dihydro-dibenzo[a,d]cyclohepten-5-ylidenemethyl)-phenyl]-amide]	< 0.5	< 0.5

Further lines, results first:

Ki (glucocorticoid receptor) [µM]	Ki (human MR) [µM]	Structure (SMILES)
< 0.5	< 0.5	COc1ccc2c(c1)OCc1ccccc1/C2=C/c1cccc(NS(C)(=O)=O)c1 [Example 706]
< 0.5	< 0.5	COc1ccc2c(c1)/C(=C/c1cccc(NS(C)(=O)=O)c1)c1ccccc1CC2 [Example 347]
< 0.5	< 0.5	CS(=O)(=O)Nc1cc(F)cc(/C=C2\c3ccc(F)cc3CCc3nc(CF)ccc32)c1 [Example 597]
< 0.5	< 0.5	CS(=O)(=O)Nc1cccc(/C=C2/c3ccccc3CCc3c2cccc3C(F)F)c1 [Example 381]
< 0.5	< 0.5	CS(=O)(=O)Nc1cccc(C=C2c3ccc(O)cc3CCc3cc(O)ccc32)c1 [Example 192, N-[3-(2,8-Dihydroxy-10,11-dihydro-dibenzo[a,d]cyclohepten-5-ylidenemethyl)-phenyl]-methanesulfonamide]
< 0.5	< 0.5	CS(=O)(=O)Nc1cccc(/C=C2/c3ccccc3CCc3cc(C(F)F)ccc32)c1 [Example 374]
< 0.5	< 0.5	COc1ccc2c(c1)COc1cc(F)ccc1/C2=C\c1cccc(NS(C)(=O)=O)c1 [Example 735]
< 0.5	< 0.5	O=c1[nH]c2cc(/C=C3/c4ccccc4CCc4cc(F)ccc43)ccc2o1 [Example 450]
< 0.5	< 0.5	Cc1ccc2c(c1)CCc1cc(C)ccc1C2=Cc1cccc(NS(C)(=O)=O)c1 [Example 325]
< 0.5	< 0.5	COc1ccc2c(c1)OCc1ccccc1/C2=C/c1cccc(NS(C)(=O)=O)c1 [Example 660]
< 0.5	< 0.5	Cc1ccc2c(c1)CCc1cc(F)ccc1C2=Cc1cccc(NS(C)(=O)=O)c1 [Example 420]
< 1	< 0.5	CS(=O)(=O)Nc1cccc(/C=C2\c3scnc3CCc3cccc(Cl)c32)c1 [Example 554]
< 1	< 0.5	CS(=O)(=O)Nc1cccc(C=C2c3ccccc3CCc3ncccc32)c1 [Example 505]
< 0.5	< 0.5	COc1ccc2c(c1)COc1cc(F)ccc1/C2=C/c1cccc(NS(C)(=O)=O)c1 [Example 736]
< 0.5	< 0.5	CS(=O)(=O)Nc1cccc(/C=C2\c3ccc(F)cc3CCc3ncsc32)c1 [Example 564]
< 0.5	< 0.5	CS(=O)(=O)Nc1cccc(/C=C2/c3ccc(F)cc3CCc3ncsc32)c1 [Example 563]
< 0.5	< 0.5	Nc1ccccc1/C=C1/c2ccc(F)cc2CCc2ncccc21 [Example 531]
< 0.5	< 0.5	Nc1cccc(C=C2c3ccc(F)cc3CCc3cc(F)ccc32)c1 [Example 384]
